{"source": "patent US20210007347A1", "about": "“COMPOSITIONS AND METHODS FOR PRESERVING ORGAN TRANSPLANTS” (FIRSTSTRING RESEARCH, INC., priority 2019, published 2021)", "key": {"Endothelial cells (EC)": {"tested_on": "Endothelial cells (EC)", "assay": "Cold storage and reperfusion injury of pre-treated endothelial cells, measured by electrical resistance", "type": "cell-based", "details": "ECs pre-treated with UW solution comprising 50 μM or 100 μM ACT1 vs UW solution only; 1, 3, 12 and 24 hours post-treatment; FIG. 1A", "protocol": "(§1) Endothelial cells (EC) were pre-treated with University of Wisconsin (UW) solution only, or UW solution comprising 50 μM or 100 μM ACT1. Cold storage and reperfusion injury, pro-inflammatory cytokine release, and gap junction stabilization (Cx43 expression) were measured."}, "IL-8": {"tested_on": "IL-8", "assay": "Pro-inflammatory cytokine (IL-8) release from pre-treated endothelial cells", "type": "cell-based", "details": "ECs pre-treated with UW solution comprising 50 μM or 100 μM ACT1 vs UW solution only; FIG. 1B", "protocol": "as §1"}, "Cx43": {"tested_on": "Cx43", "assay": "Gap junction stabilization (Cx43 expression) in pre-treated endothelial cells", "type": "cell-based", "details": "ACT1 pretreatment in UW solution; 1 hour and 24 hours post reperfusion; FIG. 1C", "protocol": "as §1"}, "Balb/c donor hearts": {"tested_on": "Balb/c donor hearts", "assay": "Allogenic heart transplantation model with static cold storage of donor hearts", "type": "in vivo, Balb/c donors, B6 recipients", "details": "donor hearts cold stored 6 h at 4° C. in UW solution with ACT1 vs UW alone"}, "Aortic allografts": {"tested_on": "Aortic allografts", "assay": "Aortic allograft transplantation, chronic rejection", "type": "in vivo, Balb/c donors, B6 recipients", "protocol": "Aortic allografts were stored for 6 hours or 24 hours, and assessed on Day 28 after transplantation for neointimal hyperplasia (a hallmark of chronic rejection) and T cell infiltration."}, "Pig kidneys": {"tested_on": "Pig kidneys", "assay": "Pig kidney ex vivo perfusion model", "protocol": "Pig kidneys were harvested and flushed with cold HTK solution, and then underwent 18 hours of cold static storage in HTK solution. At 18 hours, the kidneys were placed on a perfusion pump and perfused in cold HTK solution with or without 1 μM ACT1 (500 μL/mL). The control kidney in each pair was perfused with cold HTK and its pair was perfused with cold HTK supplemented with ACT1. While on pump, the resistance values were recorded and samples were collected of the perfusate solution every 30 minutes. At the end of 6 hours on the pump, kidneys were taken off of the pump and biopsies were collected and assessed for viability, function, and characteristics as described below.\nTubular necrosis (in this study, a measure of cell death) was assessed by basic histology/pathology methods and subjective scoring. Overall epithelial cell death was determined using EpCam as the marker. The relative expression of Vcam and ICam were determined via RT-qPCR in biopsied tissue at the end of each perfusion pump run. LDH ([…] dehydrogenase) was measured as a marker of tissue injury and was quantified using a colorimetric assay."}, "[1]": {"details": "biopsied tissue at end of perfusion with ACT1-augmented HTK solution vs HTK, FIG. 7"}}, "data": [{"sequence": "RQPKIWFPNRRKPWKKRPRPDDLEI [ACT1]", "values": [{"measurement": "cold storage and reperfusion injury as measured by electrical resistance", "setting": "Endothelial cells (EC)", "value": "prevented cold storage and reperfusion injury"}, {"measurement": "IL-8 release from the ECs", "setting": "IL-8", "value": "significantly reduced"}, {"measurement": "Cx43 expression", "setting": "Cx43", "value": "increased"}, {"measurement": "number of macrophages (MAC-3+ cells)", "setting": "Balb/c donor hearts; FIG. 2C", "value": "significantly reduced"}, {"measurement": "number of neutrophils (GR1+ cells)", "setting": "Balb/c donor hearts; FIG. 2C", "value": "significantly reduced"}, {"measurement": "IRI as measured by cardiac troponin I", "setting": "Balb/c donor hearts; FIG. 2D", "value": "significantly reduced"}, {"measurement": "IRI as measured by cumulative histology score", "setting": "Balb/c donor hearts; FIG. 2D", "value": "significantly reduced"}, {"measurement": "percent intimal expansion", "setting": "Aortic allografts; 28 days post-treatment, including aortas stored for 24 hours, FIG. 3B", "value": "significantly reduced"}, {"measurement": "neointimal hyperplasia following aorta transplantation", "setting": "Aortic allografts; aortic allografts stored 6 hours or 24 hours, assessed on Day 28 after transplantation, FIG. 3A", "value": "ameliorates"}, {"measurement": "change in vascular renal resistance", "setting": "Pig kidneys; 18 h cold static storage in HTK, then 6 hours pump perfusion in cold HTK with 1 μM ACT1 vs without, matched kidney donor pairs #1 and #2, FIGS. 4A, 4B, 5A, 5B", "value": "prevents change in vascular renal resistance"}, {"measurement": "tubular necrosis (histology, subjective scoring)", "setting": "Pig kidneys; 18 h cold static storage in HTK, then 6 hours pump perfusion in cold HTK with 1 μM ACT1 vs without, matched kidney donor pairs #1 and #2, FIGS. 4C, 5C", "value": "reduces tubular necrosis"}, {"measurement": "endothelial cell activation as measured by Icam expression (RT-qPCR)", "setting": "Pig kidneys; [1]", "value": "decreases endothelial cell activation"}, {"measurement": "endothelial cell activation as measured by Vcam expression (RT-qPCR)", "setting": "Pig kidneys; [1]", "value": "decreases endothelial cell activation"}, {"measurement": "LDH activity (marker of tissue injury, colorimetric assay)", "setting": "Pig kidneys; cold HTK perfusion with 1 μM ACT1 vs without, paired marginal kidneys, FIG. 6", "value": "decreases LDH activity"}]}]}
